Test in all cases: NCI-60 cell line screen, 48 h
The test system of experiment [1] is HT29 colon.
The subject of experiment [2] is IGROV1 ovarian.
Experiment [3] deals with LOX IMVI melanoma.
Experiment [4] relates to MOLT-4 leukemia.
The subject of experiment [5] is SF-268 CNS.
The test system of experiment [6] is SK-MEL-2 melanoma.
The subject of experiment [7] is SK-MEL-5 melanoma.
Experiment [8] deals with U251 CNS.
In experiment [9] the test system is UO-31 renal.

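The compound was tested at five concentrations on cells cultured in 96-well plates, with a 48-hour exposure period. GI50 marks 50% less growth. At the TGI there is no net growth.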

In the case of `N#Cc1c2c(c(N=[N+]=[N-])n3c1nc1ccccc13)CCCC2`, the TGI in experiment [1] was 3.77 µM; in experiment [2], 6.56 µM; in experiment [3], 3.52 µM; in [4], 5.37 µM; in experiment [5], 16 µM; in experiment [6], 3.58 µM. The TGI in [7] is 32.3 µM; in experiment [8], 10.3 µM; in experiment [9], 4.55 µM.
Consider `CCOC(=O)/C=C1\Nc2ccccc2C(c2ccccc2)=NC1OC(C)=O` (centres undefined), for which the TGI in experiment [1], in experiment [2], in [3], in experiment [4], in experiment [5] and in [6] was > 100 µM in each case. The TGI in experiment [7], in [8] and in [9] was > 100 µM in each case.
In the case of `CN1CC2(CCCCC2)C(O)C12C=CCCC2` (centres undefined), the TGI in [1], in [2], in [3], in [4], in [5] and in experiment [6] was > 100 µM each time. Also, the TGI in experiment [7], in [8] and in [9] was > 100 µM throughout.
Turning to `CC(=O)[CH-]C(=O)c1ccccc1.CC(=O)[CH-]C(=O)c1ccccc1.[O]=[U+2]=[O]`, the GI50 in experiment [1] is 23.4 µM; in experiment [2], 55 µM; in [3], 25.4 µM; in [4], 32.3 µM; in [5], 58.2 µM; in [6] it was 37.4 µM. The GI50 in [7] is 26.8 µM; in experiment [8], 35.5 µM. Also, the TGI is 57.4 µM in [1]; > 100 µM in experiment [2]; > 100 µM in experiment [3]; > 100 µM in [4]; > 100 µM in [5]; > 100 µM in experiment [6]. Also, the TGI in experiment [7] and in experiment [8] was > 100 µM in each case.
`O=c1c2ccccc2nc(-c2ccccc2)n1NCC1(O)OCC(O)C(O)C1O` (centres undefined): the TGI in experiment [1], in experiment [2], in experiment [4], in experiment [5], in experiment [6] and in experiment [7] was > 100 µM each time. The TGI in experiment [8] and in [9] was > 100 µM in each case.
Turning to `C/C(=N\NS(=O)(=O)c1ccc(C)cc1)c1ccc[n+]([O-])n1`, the TGI in experiment [1], in experiment [2], in experiment [4], in experiment [5], in [7] and in experiment [8] was > 100 µM each time. Further, in [9], the TGI was > 100 µM.
As for `S=C(Nc1ccccc1)Nc1[nH]c(=S)sc1-c1nc2ccccc2[nH]1`, the TGI in experiment [1], in [2], in experiment [3], in experiment [4], in experiment [5] and in [6] was > 100 µM each time. Further, the TGI in [7], in experiment [8] and in experiment [9] was > 100 µM in each case.
For `CC(C)c1ccc(/C=C(\NC(=O)c2ccccc2)c2nc3ccccc3[nH]2)cc1`, the TGI in experiment [1] was > 100 µM; in experiment [2], > 100 µM; in experiment [3] it was > 100 µM; in [4] it was 69.9 µM; in experiment [5], > 100 µM; in [6] it was 89.3 µM. Further, the values for the TGI in [7], in experiment [8] and in experiment [9] were 48.7 µM, > 100 µM and > 100 µM, respectively.
For the compound `COC(=O)/C(C#N)=C1\N=NNN1CCCN1CCOCC1`, the TGI in experiment [1], in experiment [2], in experiment [3], in experiment [4], in [7] and in [8] was > 100 µM in each case. For the same compound, the TGI in [9] was > 100 µM.
In the case of `O=C1CCC2(CCC(=O)NC2=O)C(=O)N1`, the TGI in experiment [1], in [2], in [3], in [4], in [5] and in [7] was > 100 µM in each case. Besides, the TGI in experiment [8] and in experiment [9] was > 100 µM in each case.
Regarding `O=C(CCCCCCCCC(=O)OCC1OC(n2cnc3c(=O)[nH]cnc32)C(O)C1O)OCC1OC(n2cnc3c(=O)[nH]cnc32)C(O)C1O` (centres undefined), the TGI in experiment [1], in [2], in experiment [3], in [4], in experiment [5] and in [6] was > 100 µM in each case. In addition, the TGI in experiment [7], in experiment [8] and in experiment [9] was > 100 µM throughout.
On to `Cc1ccc(NC(=O)CCC(=O)C2CC(=O)CC/C2=N\NC(=O)c2cc3ccccc3cc2O)cc1C` (centres undefined), for which the TGI was > 100 µM in experiment [1]; 66.9 µM in [2]; 99.6 µM in [4]; > 100 µM in experiment [5]; 82.7 µM in experiment [6]; 29.6 µM in experiment [7]. Moreover, the TGI in experiment [8] is > 100 µM; in [9], 59.3 µM.
Take `O=C1[C@H]2C(c3ccccc3)=NN(C(=O)c3ccccc3)[C@H]2C(=O)N1c1ccccc1`: the TGI in experiment [1], in experiment [2], in experiment [3], in experiment [4], in [6] and in experiment [8] was > 100 µM throughout. For the same compound, the TGI in experiment [9] was > 100 µM.
In the case of `COc1cc2ccn3c4cc(OC)c(OC)cc4cc3c2cc1OC`, the TGI in experiment [1], in experiment [4], in [5], in experiment [6], in experiment [8] and in experiment [9] was > 100 µM each time.
As to `c1ccc(SCCCC(Sc2ccccc2)Sc2ccccc2)cc1`, the TGI in [2], in experiment [3], in experiment [4], in [5], in [6] and in experiment [7] was > 100 µM throughout. The TGI in experiment [8] and in [9] was > 100 µM in each case.
For `CC1=C(C#N)C(N)=C2C(C)=C(C#N)C(N)=C12`, the TGI in experiment [1], in [2], in experiment [3], in [4], in experiment [5] and in experiment [7] was > 100 µM throughout. Besides, the TGI in [8] and in [9] was > 100 µM throughout.
For `Cc1nnc2n1N=C(CC(=O)c1ccc(O)cc1O)CN2N`, the TGI in experiment [1], in [2], in experiment [3], in experiment [5], in experiment [6] and in experiment [7] was > 100 µM throughout. Further, the TGI in experiment [8] and in [9] was > 100 µM each time.
Regarding `CC1CCC(O)C(C(O)CC2CC(=O)N(C)C(=O)C2)C1` (centres undefined), the TGI in experiment [1], in experiment [2], in experiment [3], in experiment [4], in [5] and in [8] was > 100 µM each time. In addition, the TGI in experiment [9] was > 100 µM.
As to `Brc1ccc2c(c1)C1(c3cc(Br)ccc3-2)c2cc(Br)ccc2-c2ccc(Br)cc21`, the TGI in [1], in [2], in experiment [3], in experiment [4], in experiment [5] and in experiment [6] was > 100 µM each time. The TGI in experiment [8] and in [9] was > 100 µM in each case.
Consider `O=C1OCC(C(=O)c2cccc(O)c2)C1=O` (centres undefined), for which the TGI in [1], in experiment [2], in experiment [3], in experiment [5], in experiment [7] and in experiment [8] was > 100 µM in each case. For the same compound, in experiment [9], the TGI is > 100 µM.
Consider `COC(=O)C12CC(C3CC31)C1CC12` (centres undefined), for which the TGI in experiment [1], in experiment [2], in experiment [3], in experiment [4], in experiment [5] and in experiment [7] was > 100 µM in each case. Also, the TGI in experiment [8] and in [9] was > 100 µM throughout.
For `CCC1OCCN1C(C)C` (centres undefined), the TGI in [2], in experiment [3], in [4], in experiment [5], in experiment [6] and in experiment [7] was > 100 µM throughout. The TGI in experiment [8] and in experiment [9] was > 100 µM each time.
On to `CC1OC(=O)N(CCCC=C2SCCCS2)C1=O` (centres undefined), for which the TGI in [1], in experiment [2], in [3], in experiment [4], in experiment [5] and in [6] was > 100 µM each time. Further, the TGI in experiment [8] and in experiment [9] was > 100 µM in each case.
For `c1ccc2c(c1)CCCc1cc3ccccc3nc1-2`, the TGI in experiment [1], in experiment [2], in experiment [4], in experiment [5], in [6] and in experiment [7] was > 100 µM each time. The TGI in experiment [8] and in experiment [9] was > 100 µM throughout.

The values above are taken from PubChem BioAssay (NCI).
